In US8420640B2, “Methods of treating amyloid disease using analogs of 1-(4-nitrophenyl) piperazine” (Treventis Corporation, priority 2008, dated 2013):

Legend:
Aβ40 = molecular target: T1, Aβ40 (Homo sapiens, UniProt P05067); experiment: ThT functional Aβ 1-40 aggregation assay; format: biochemical; details: for IC50: 20 μM Aβ, 20 mM Tris pH 7.4, 150 mM NaCl, 1% DMSO, 37° C.; for Ratio: potency with respect to the compound of Example 7, 1=potency of that compound
T1 construct: Compounds Showing Activity Observed in a ThT Functional Aβ 1-40 Aggregation Assay
T1 sequence (P05067 672-711 limits assumed): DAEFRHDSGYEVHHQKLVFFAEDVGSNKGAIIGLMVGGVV
Description: Aβ40 (1.0 mg) was pre-treated in a 1.5 mL microfuge tube with HFIP (1 mL) and sonicated for 20 min to disassemble any pre-formed Aβ aggregates. The HFIP was removed with a stream of argon and the Aβ dissolved in Tris base (5.8 mL, 20 mM, pH ˜10). The pH was adjusted to 7.4 with concentrated HCl (˜10 μL) and the solution filtered using a syringe filter (0.2 μm) before being used.
(§1) The kinetic ThT assay for Aβ aggregation is similar to that of Chalifour et al (Chalifour et al, 2003, J. Biol. Chem. 278:34874-81). Briefly, pre-treated Aβ40 (40 μM in 20 mM Tris, pH 7.4), was diluted with an equal volume of 8 μM ThT in Tris (20 mM, pH 7.4, 300 mM NaCl). Aliquots of Aβ/ThT (200 μL) were added to wells of a black polystyrene 96-well plate, followed by 2 μL of a compound in DMSO (variable concentration), or DMSO alone (controls). Incubations were performed in triplicate and were taken to contain 20 μM Aβ, various concentration of compound in 20 mM Tris, pH 7.4, 150 mM NaCl, 1% DMSO. Plates were covered with clear polystyrene lids and incubated at 37° C. in a Tecan Genios microplate reader. Fluorescence readings (λex=450 nm, λem=480 nm) were taken every 15 min., after first shaking at high intensity for 15 s and allowing to settle for 10 s before each reading. Active compounds attenuated the increase in fluorescence over time that occurred in controls. By repeating this procedure over several concentrations, a mean inhibitory concentration (IC50) was measured, as given in the table below. The column “A-syn” represents a similar procedure measuring inhibition of alpha-synuclein aggregation. The column “ratio” is a reproducible assessment of potency with respect to the compound of Example 7, in which 1=potency of that compound: […]

alpha-synuclein = alpha-synuclein (Homo sapiens, UniProt P37840); experiment: alpha-synuclein aggregation inhibition (procedure similar to the ThT assay); format: biochemical; details: inhibition of alpha-synuclein aggregation; read-out: A-syn (IC50/μM)
Description: as §1

Row | Compound | IC50 (Aβ40) [µM] | Ratio (Aβ40) | IC50 (alpha-synuclein) [µM]
1 | CN(C)c1ccc([N+](=O)[O-])c(Nc2ccccc2)c1 | 39 | 0.15 | 
2 | O=C(c1ccccc1)N1CCN(c2cccc(Nc3ccccc3)c2)CC1 | 539 | 0.05 | 
3 | CS(=O)(=O)N1CCN(c2ccc([N+](=O)[O-])c(Nc3ccccc3)c2)CC1 | > 50 |  | 
4 | CNc1ccc(N2CCN(C(=O)c3ccccc3)CC2)cc1Nc1ccccc1 | 2.29 | 4.4 | 
5 | O=C(Nc1ccccc1)c1ccccc1-c1ccc([N+](=O)[O-])c(NCc2ccccc2)c1 | 152 | 0.03 | 
6 | O=C(c1ccccc1F)N1CCN(c2ccc([N+](=O)[O-])c(NCc3ccco3)c2)CC1 | 2.1 |  | 
7 | COc1ccc(N2CCN(C(=O)c3ccccc3)CC2)cc1Nc1ccccc1 | 238 | 0.04 | 
8 | O=[N+]([O-])c1ccc(N2CCNCC2)cc1Nc1ccccc1 | 8.82 | 0.54 | 
9 | O=C(c1nnc[nH]1)N1CCN(c2ccc([N+](=O)[O-])c(NCc3ccc(Cl)cc3)c2)CC1 | 1.4 |  | 
10 | Nc1cccc(N2CCN(C(=O)c3ccccc3)CC2)c1 | 428 | 0.05 | 
11 | O=[N+]([O-])c1ccccc1NCc1ccccc1 | 63 | 0.38 | 
12 | CN1CCN(c2ccc([N+](=O)[O-])c(Nc3ccccc3)c2)CC1 | 23.2 | 0.42 | 
13 | O=C(Nc1cc([N+](=O)[O-])ccc1N1CCN(C(=O)c2ccccc2)CC1)c1ccccc1 | 1040 | 0.01 | 
14 | O=[N+]([O-])c1ccc(N2CCOCC2)cc1Nc1ccccc1 | 23 | 0.40 | 
15 | Nc1ccc(-c2cccc(C(=O)O)c2)cc1Nc1ccccc1 | 26.6 | 2.5 | 45
16 | CCNC(=O)c1ccc(N2CCN(C(=O)c3ccccc3)CC2)cc1NCc1ccccc1 | 66.2 | 0.13 | 
17 | CN(c1ccccc1)c1cc(N2CCN(C(=O)c3ccccc3)CC2)ccc1[N+](=O)[O-] | 9.64 | 0.9 | 5

Row | Compound | IC50 (Aβ40) [µM] | Ratio (Aβ40) | IC50 (alpha-synuclein) [µM]
18 | CC(=O)Nc1ccc(N2CCN(C(=O)c3ccccc3)CC2)cc1Nc1ccccc1 |  | 0.21 | 
19 | O=C(c1ccccc1)N1CCN(c2ccc([N+](=O)[O-])cc2NCc2ccccc2)CC1 | 18 | 0.22 | 
20 | O=C(O)c1ccc(-c2ccc([N+](=O)[O-])c(NCc3ccccc3)c2)cc1 | 184 | 0.02 | 
21 | CNc1ccc(N2CCN(C(=O)c3ccccc3)CC2)cc1N(C)c1ccccc1 | 7.8 | 1.3 | 
22 | CN(C)C(=O)N1CCN(c2ccc([N+](=O)[O-])c(Nc3ccccc3)c2)CC1 | 8.4 | 0.72 | 
23 | CCc1ccc(C(=O)N2CCN(c3ccc([N+](=O)[O-])c(N4CCOCC4)c3)CC2)cc1 | 2.7 |  | 
24 | CC(=O)Nc1cc(N2CCN(C(=O)c3ccccc3)CC2)ccc1[N+](=O)[O-] | 44 | 0.19 | 
25 | O=C(NCc1ccccc1)c1ccccc1-c1ccc([N+](=O)[O-])c(NCc2ccccc2)c1 | 631 | 0.02 | 
26 | O=C(O)c1ccccc1-c1ccc([N+](=O)[O-])c(NCc2ccccc2)c1 | 41.9 | 0.5 | 
27 | CN(C)c1ccc(N2CCN(C(=O)c3ccccc3)CC2)cc1N(C)c1ccccc1 | 148 | 0.25 | 
28 | O=[N+]([O-])c1ccc(N2CCN(S(=O)(=O)c3ccccc3)CC2)cc1Nc1ccccc1 | > 50 |  | 
29 | O=C(c1ccccc1)N1CCN(c2cccc([N+](=O)[O-])c2)CC1 [drawing 151] | 360 | 0.06 | 
30 | CN(C)c1ccc(N2CCN(C(=O)c3ccccc3)CC2)cc1Nc1ccccc1 [drawing 157] | 3.5 | 11 | ~7
31 | CC(=O)Nc1cc([N+](=O)[O-])ccc1N1CCN(C(=O)c2ccccc2)CC1 | 105 | 0.04 | 
32 | COC(=O)c1ccc(N2CCN(C(=O)c3ccccc3)CC2)cc1NCc1ccccc1 | 174 | 0.14 | 
33 | O=[N+]([O-])c1ccc(Br)cc1NCc1ccccc1 | 20 to 50 |  | 
